Article PMC9218685, “Legume Plant Peptides as Sources of Novel Antimicrobial Molecules Against Human Pathogens” (Frontiers in Molecular Biosciences, 2022)
In brackets after ≈: the same amount, converted by molar mass. Entries after “also recorded” stand apart in the source; their conditions may differ. Where two headings read alike, the source gives them in different places. Peptide text beside a SMILES is read from it.

Tests used:
[1] = tested on: Candida albicans W01 strain; test: microbe, parasite or virus in culture; type: cell-based; conditions: read-out: MFC, minimal fungicidal concentration against C. albicans
From the text: (§1) The following pathogenic bacterial strains were used: The Gram-positive Enterococcus faecalis (ATCC 29212), Staphylococcus aureus (HNCMO112011), Listeria monocytogenes (ATCC 19111) and the Gram-negative Pseudomonas aeruginosa (ATCC 27853), Escherichia coli (ATCC 8739), Salmonella enterica (ATCC 13076), Klebsiella pneumoniae (NCTC 13440), Acinetobacter baumannii (ATCC 17978) obtained from the ATCC (United States) and NCTC (National Collection of Type Cultures–England). For the antifungal experiment the Candida albicans W01 strain ([Ördögh et al., 2014]) was used. Antimicrobial activities of peptides against ∼10^7 log phase bacteria were tested in Potassium-Phosphate Buffer (PPB, pH 7.4) as described by [Jenei et al. (2020)] while anti-Candida assays were done according to [Szerencsés et al. (2021)]. The two-fold dilution series of peptides ranged from 25 μM to 0.125 μM, while that of the antibiotics ampicillin (Merck) and miconazole (Duchefa Biochemie) from […] to 0.1 μM. The lowest concentration of the antimicrobial agents, which completely eliminated viable bacteria or C. albicans were considered as the minimal bactericidal concentration (MBC) and minimal fungicidal concentration (MFC).

[2] = tested on: Lambda DNA/HindIII marker; test: Gel retardation assay (DNA aggregation); type: binding; conditions: 100 ng DNA, 5 or 10 µM peptide in water, 30 min at room temperature, 1% agarose gel
Procedure: Interactions of peptides with DNA was visualized with gel retardation assay ([Hsu et al., 2005]). 100 ng Lambda DNA/HindIII marker (ThermoFisher Scientific) was incubated with 0, 5 or 10 µM synthetic NCRs or NCR derivatives in water for 30 min at room temperature and then loaded into 1% agarose gel. Electrophoresis of DNA fragments separated the mobile HindIII-digested DNA fragments while the aggregated DNA remained in the loading wells.
FIGURE 6 Aggregation of DNA by NCR peptides. Lambda HindIII digested DNA was incubated without (0) or with NCR peptides at 5 or 10 μM concentration.

[3] = tested on: A. baumannii; test: Scanning electron microscopy of cell morphology; type: cell-based, Acinetobacter baumannii; conditions: 30 min treatment, peptide 1.6 or 3.125 µM as in Figure 3 legend
Procedure: A. baumannii and C. albicans were grown and treated the same way as for the membrane permeability assay. Cells were then fixed with 2.5% (v/v) glutaraldehyde in phosphate buffered saline (PBS, pH 7.4). 5 μl of the above bacterial and yeast suspensions were spotted on a silicon disk coated with 0.01% Poly-L-Lysine. The filters were washed twice with PBS and gradually dehydrated with ethanol series (30, 50, 70, 80%, and three times 100% ethanol, each for minimum 30 min). The samples were dried with a critical point dryer (K850: Quorum Technologies Ltd.), followed by 12 nm gold coating and observed under a JEOL JSM-7100F/LV scanning electron microscope.
FIGURE 3 Viability, membrane permeability and morphology of A. baumannii cells after NCR treatment (A–L) SYTO9/PI staining observed with confocal microscope, (M–X) Cell morphology observed with SEM. (A,M) untreated control, (B,N) CaNCR13, 3.125 µM, (C,O) CaNCR63, 3.125 µM, (D,P) CaNCR63_1-20, 3.125 µM, (E,Q) CaNCR63_15-34, 3.125 µM, (F,R) MsNCR443, 3.125 µM, (G,S) MsNCR463_16-35, 1.6 µM, (H,T) MsNCR463_17-30, 3.125 µM, (I,U) PsNCR349, 1.6 µM, (J,V) PsNCR349_26-50, 3.125 µM, (K,W) PsNCR349_31-50, 3.125 µM, (L,X) PsNCR352, 1.6 µM.

[4] = tested on: E. coli, S. enteritidis, P. aeruginosa, L. monocytogenes, S. aureus, E. faecalis, K. pneumoniae and A. baumannii; test: Antimicrobial activity assay, spectrum over the eight tested pathogenic bacteria; type: cell-based; conditions: 3 h treatment of ~10^7 log phase bacteria, peptides 25 to 0.8 µM; active = MBC ≤25 µM
From the text: as §1
We investigated the antimicrobial activity of 78 NCR peptides from M. truncatula and 12 NCRs from other IRLC legumes as well as their shorter derivatives against E. coli, S. enteritidis, P. aeruginosa, L. monocytogenes, S. aureus, E. faecalis, K. pneumoniae and A. baumannii (Supplementary Table S1). In the selection of the M. truncatula peptides, we considered their symbiotic expression levels but also their physicochemical properties. The antimicrobial activity of NCRs has so far been attributed to cationic peptides, with the exception of one anionic peptide. To investigate whether other anionic NCRs are antimicrobial, in addition to the cationic peptides, neutral and anionic NCRs were also included covering a broad range of peptides with different net charges (NC: from 7.8 to −10.2) and isoelectric points (pI: from 10.69 to 2.95). 50 peptides had positive net charge and pI > 7.0, while 28 peptides had negative net charge and pI < 7.0 (Supplementary Table S1A). Of the other legumes, only cationic NCR peptides were studied (Supplementary Table S1B).
(§2) The minimal bactericidal concentrations (MBCs) were determined after 3 h of treatment of ∼10^7 log phase bacteria with 2-fold serial dilution of peptides from 25 µM to 0.8 µM. Only 25 of the 50 cationic M. truncatula peptides had activity at ≤25 µM (Supplementary Table S1). […] Three peptides were only active against two bacterial strains; NCR649 against L. monocytogenes and A. baumannii, NCR281 against L. monocytogenes and P. aeruginosa and NCR350 against A. baumannii and P. aeruginosa. […] None of the anionic NCR peptides affected the survival of the tested bacterial strains.

[5] = tested on: Listeria monocytogenes (ATCC 19111); type: cell-based; conditions: ATCC 19111, 3 h
From the text: as §1, §2

[6] = tested on: Pseudomonas aeruginosa (ATCC 27853); type: cell-based; conditions: ATCC 27853, 3 h
From the text: as §1, §2

[7] = tested on: Escherichia coli (ATCC 8739); type: cell-based; conditions: ATCC 8739, 3 h
From the text: as §1, §2

[8] = tested on: Enterococcus faecalis (ATCC 29212); type: cell-based; conditions: for Ability to kill E. faecalis: 3 h, ~10^7 log phase bacteria, peptides ≤25 µM
From the text: as §1, §2

[9] = tested on: Acinetobacter baumannii (ATCC 17978); test: microbe, parasite or virus in culture; type: cell-based; conditions: ATCC 17978, 3 h, pH 7.4; read-out: MBC, minimal bactericidal concentration against A. baumannii
Method in brief: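 About 10^7 log-phase bacteria were treated for 3 h in potassium-phosphate buffer (pH 7.4) with 2-fold peptide dilutions from 25 µM downward. MBC was the lowest concentration that completely eliminated viable bacteria.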

Row | SMILES | Antibacterial spectrum over the eight tested bacterial strains [4] | Ability to kill E. faecalis [8] | MBC [9] | MFC ([1]; W01 strain) | further results
1 | Clc1ccc(COC(Cn2ccnc2)c2ccc(Cl)cc2Cl)c(Cl)c1 (stereo not drawn) [Miconazole, reference compound] | – | – | – | – | MFC ([1]; Candida albicans, W01STRAIN, C. albicans W01, two-fold dilution series, lowest concentration completely eliminating viable C. albicans): 50600 µM (≈ 21000 µg/mL)
2 | CC[C@H](C)[C@H](NC(=O)[C@H](CCCCN)NC(=O)[C@H](CO)NC(=O)[C@H](CCCNC(=N)N)NC(=O)[C@@H]1CCCN1C(=O)[C@@H](N)CS)C(=O)N[C@@H](CCCCN)C(=O)N[C@@H](CC(=O)O)C(=O)N[C@@H](CS)C(=O)N[C@H](C(=O)N[C@@H](CCCCN)C(=O)NCC(=O)N[C@@H](Cc1ccc(O)cc1)C(=O)N[C@@H](CS)C(=O)N[C@@H](CCCNC(=N)N)C(=O)N[C@@H](CS)C(=O)N[C@H](C(=O)N[C@@H](CCCNC(=N)N)C(=O)N[C@@H](CCCCN)C(=O)N[C@@H](CCCCN)C(N)=O)C(C)C)C(C)C [CaNCR63_15-34] (H-CPRSKIKDCVKGYCRCVRKK-NH2; N-terminus assumed) | – | – | – | – | Aggregation of HindIII-digested λ DNA (DNA retained in loading wells) [2]: DNA remained in the wells; Morphology of A. baumannii cells by SEM [3]: rough cell surface, lysis and flattening of the cells; also recorded: Filament-like structures
3 | CC[C@H](C)[C@H](NC(=O)CNC(=O)[C@H](CCC(N)=O)NC(=O)[C@@H](NC(=O)[C@H](CS)NC(=O)[C@H](CCCNC(=N)N)NC(=O)[C@H](CC(C)C)NC(=O)[C@H](CCCNC(=N)N)NC(=O)[C@H](CCCNC(=N)N)NC(=O)[C@H](CC(N)=O)NC(=O)[C@@H](NC(=O)[C@H](Cc1ccc(O)cc1)NC(=O)[C@H](CCSC)NC(=O)[C@@H]1CCCN1C(=O)[C@H](Cc1ccc(O)cc1)NC(=O)[C@H](CC(C)C)NC(=O)[C@@H](NC(=O)[C@H](CC(N)=O)NC(=O)[C@H](CS)NC(=O)[C@H](CC(=O)O)NC(=O)[C@@H](NC(=O)[C@H](CC(=O)O)NC(=O)[C@H](CO)NC(=O)[C@@H](NC(=O)[C@H](CS)NC(=O)[C@H](CCC(=O)O)NC(=O)[C@@H](N)CO)[C@@H](C)CC)[C@@H](C)O)C(C)C)[C@@H](C)CC)[C@@H](C)CC)C(=O)N[C@@H](CS)C(=O)N[C@@H](Cc1c[nH]cn1)C(=O)N[C@H](C(=O)N[C@H](C(=O)N[C@H](C(=O)N[C@@H](C)C(=O)N[C@@H](CCCNC(=N)N)C(=O)N[C@@H](CCCNC(=N)N)C(=O)N[C@@H](CCCNC(=N)N)C(=O)O)[C@@H](C)O)[C@@H](C)O)[C@@H](C)O [NCR299] (H-SECISDTDCNVLYPMYINRRLRCIQGICHTTTARRR-OH; N-terminus assumed) | effective against five or four strains | able to kill | – | – | MBC Listeria monocytogenes [5]: 12.5 µM (≈ 53.2 µg/mL); MBC Pseudomonas aeruginosa [6]: 3.125 µM (≈ 13.3 µg/mL); MBC Escherichia coli [7]: 12.5 µM (≈ 53.2 µg/mL); MBC Enterococcus faecalis ([8]; ATCC 29212, 3 h): 12.5 µM (≈ 53.2 µg/mL)
4 | CC[C@H](C)[C@H](NC(=O)[C@@H]1CCCN1C(=O)[C@H](CC(C)C)NC(=O)[C@H](CS)NC(=O)[C@H](CCCCN)NC(=O)[C@H](CS)NC(=O)[C@H](CCSC)NC(=O)[C@H](CCCNC(=N)N)NC(=O)[C@H](CCCNC(=N)N)NC(=O)[C@@H](NC(=O)[C@H](CS)NC(=O)[C@H](CCCNC(=N)N)NC(=O)[C@@H]1CCCN1C(=O)[C@H](CCC(=O)O)NC(=O)[C@H](CCSC)NC(=O)CNC(=O)[C@@H]1CCCN1C(=O)[C@@H]1CCCN1C(=O)[C@H](CS)NC(=O)[C@H](CCSC)NC(=O)[C@H](Cc1c[nH]cn1)NC(=O)[C@@H]1CCCN1C(=O)[C@@H]1CCCN1C(=O)[C@H](CS)NC(=O)[C@H](Cc1c[nH]cn1)NC(=O)[C@H](CO)NC(=O)[C@H](CC(=O)O)NC(=O)[C@@H](NC(=O)[C@@H](NC(=O)[C@H](CS)NC(=O)[C@H](CC(C)C)NC(=O)[C@@H](N)Cc1ccc(O)cc1)C(C)C)[C@@H](C)O)C(C)C)C(=O)NCC(=O)N[C@@H](Cc1c[nH]c2ccccc12)C(=O)N[C@@H](CCCNC(=N)N)C(=O)N[C@@H](CCCCN)C(=O)N[C@@H](Cc1ccc(O)cc1)C(=O)N[C@@H](Cc1ccccc1)C(=O)N[C@H](C(=O)N1CCC[C@H]1C(=O)O)C(C)C [NCR336] (H-YLCVTDSHCPPHMCPPGMEPRCVRRMCKCLPIGWRKYFVP-OH; N-terminus assumed) | capable of killing all tested bacteria; also recorded: active against all the eight tested pathogens | able to kill | – | – | –
5 | CC(C)[C@H](NC(=O)CNC(=O)[C@H](CCCNC(=N)N)NC(=O)[C@H](CCCCN)NC(=O)[C@@H]1CCCN1C(=O)[C@@H](N)CCCCN)C(=O)N[C@@H](CC(N)=O)C(=O)N[C@@H](Cc1ccccc1)C(=O)N[C@@H](CCCNC(=N)N)C(=O)N[C@@H](CS)C(=O)N[C@@H](CCCNC(=N)N)C(=O)N[C@@H](CCCCN)C(=O)NCC(=O)N[C@@H](CCCCN)C(N)=O [MsNCR463_17-30] (H-KPKRGVNFRCRKGK-NH2) | – | – | 3.125 µM (≈ 5.23 µg/mL) | 3.125 µM (≈ 5.23 µg/mL) | –
6 | CSCC[C@H](NC(=O)[C@H](CC(N)=O)NC(=O)[C@H](Cc1ccccc1)NC(=O)[C@@H](NC(=O)[C@H](CC(C)C)NC(=O)[C@H](CCCCN)NC(=O)[C@H](CCCCN)NC(=O)[C@H](CCCCN)NC(=O)[C@H](CCCCN)NC(=O)[C@H](CCCCN)NC(=O)[C@H](CC(C)C)NC(=O)[C@H](CCCCN)NC(=O)[C@H](CCCCN)NC(=O)[C@H](CCCCN)NC(=O)[C@H](Cc1c[nH]cn1)NC(=O)[C@H](CCCCN)NC(=O)[C@H](CCC(N)=O)NC(=O)[C@@H](NC(=O)[C@H](CS)NC(=O)[C@@H](N)Cc1ccc(O)cc1)C(C)C)[C@@H](C)O)C(N)=O [PsNCR349_31-50] (H-YCVQKHKKKLKKKKKLTFNM-NH2) | – | – | 6.25 µM (≈ 15.8 µg/mL) | 1.6 µM (≈ 4.03 µg/mL) | –
